From patent publication US11981954B2, “Compositions and methods for rapid identification and phenotypic antimicrobial susceptibility testing of bacteria and fungi” (priority 2019, dated 2024)

What was measured:
Conditions in all cases: interpreted according to CLSI M100 ED 30, confirmed by PCR ID/AST after 4 h incubation, 5E5 CFU/mL
E. faecium strain 18483 = assay: PCR-based rapid ID/AST and CLSI susceptibility interpretation, E. faecium strain 18483; assay type: cell-based, Enterococcus faecium
Protocol: (§1) • a. Prepare antimicrobial (Abx) Plate ahead of time and store at […] until needed • i. Diluent—Cation Adjusted Mueller Hinton Broth (CAMHB) • ii. Final Vol—50 ul/well • iii. Remove from −80 C and let thaw at 30 min/Room Temp prior to use
(§2) • b. Overnight cultures in CAMHB—37 C/16-18 hrs/500 rpm • i. 10 ul glycerol stock+490 ul CAMHB in 2 mL 96-well Deep Well Plate • c. Normalize cultures to 1.00E+06 CFU/mL by Optical Density (OD) • d. Prepare Test Plate by adding 50 ul normalized test isolate to appropriate wells of Abx Plate as outlined
(§3) • e. Incubate Test Plate at 37 C/4 hrs/no shaking • f. Prepare PCR Reagents according to TABLE XXIX • g. Add 45 ul Master Mix to each well of a PCR Assay Plate • h. Following incubation, stamp 5 ul/well of Test Plate to PCR Assay Plate • i. Final Vol—50 ul/well • i. For Test Plate, continue incubating at 37 C/12-16 hrs/no shaking to determine reference method Minimum Inhibitory Concentration (MIC) • j. Load PCR Assay Plate to cobas z 480 instrument and run under conditions of TABLE XXX. • k. Following incubation read Test Plate for MIC and determine phenotypic Susceptible/Intermediate/Resistant interpretation. […]

E. faecium strain 18446 = assay: PCR-based rapid ID/AST and CLSI susceptibility interpretation, E. faecium strain 18446; assay type: cell-based, Enterococcus faecium
Protocol: as §1, §2, §3

S. aureus strain 15509 = assay: PCR-based rapid ID/AST and CLSI susceptibility interpretation, S. aureus strain 15509; assay type: cell-based, Staphylococcus aureus
Protocol: as §1, §2
(§4) • e. Incubate Test Plate at 37 C/4 hrs/no shaking • f. Prepare PCR Reagents according to TABLE XXIX • g. Add 45 ul Master Mix to each well of a PCR Assay Plate • h. Following incubation, stamp 5 ul/well of Test Plate to PCR Assay Plate • i. Final Vol—50 ul/well • i. For Test Plate, continue incubating at 37 C/12-16 hrs/no shaking to determine reference method Minimum Inhibitory Concentration (MIC) • j. Load PCR Assay Plate to cobas z 480 instrument and run under conditions of TABLE XXX. • k. Following incubation read Test Plate for MIC and determine phenotypic Susceptible/Intermediate/Resistant interpretation.
(§5) Rapid Identification and phenotypic antimicrobial susceptibility testing of Staphylococcus aureus utilizing three distinct target genes (gyrB, ddlA, tuf) and one class of antibacterial agent, cefoxitin (cephalosporin) was performed. […]

S. aureus strain 16405 = assay: PCR-based rapid ID/AST and CLSI susceptibility interpretation, S. aureus strain 16405; assay type: cell-based, Staphylococcus aureus
Protocol: as §1, §2, §4, §5

[1] = tested on: K. pneumoniae strain 0143; assay: PCR-based rapid ID/AST and CLSI susceptibility interpretation, K. pneumoniae strain 0143; assay type: cell-based, Klebsiella pneumoniae
Protocol: as §1, §2, §4
(§6) The primer/probe sets used were as follows. […]
(§7) The percentages on the Y-axis depicted as “Fold Change Abx level 1” were determined using the calculation 2^-(Abx_Level_1_Ct−Reference_Ct) or 2^-([…]Ct).

[2] = tested on: K. pneumoniae strain 16565; assay: PCR-based rapid ID/AST and CLSI susceptibility interpretation, K. pneumoniae strain 16565; assay type: cell-based, Klebsiella pneumoniae
Protocol: as §1, §2, §4, §6, §7

[3] = tested on: P. aeruginosa strain 16657; assay: PCR-based rapid ID/AST and CLSI susceptibility interpretation, P. aeruginosa strain 16657; assay type: cell-based, Pseudomonas aeruginosa
Protocol: as §1, §2, §4, §6

[4] = tested on: P. aeruginosa strain 17816; assay: PCR-based rapid ID/AST and CLSI susceptibility interpretation, P. aeruginosa strain 17816; assay type: cell-based, Pseudomonas aeruginosa
Protocol: as §1, §2, §4, §6

[5] = tested on: A. baumannii strain 17694; assay: PCR-based rapid ID/AST and CLSI susceptibility interpretation, A. baumannii strain 17694; assay type: cell-based, Acinetobacter baumannii
Protocol: as §1, §2, §4, §6

[6] = tested on: A. baumannii strain 16421; assay: PCR-based rapid ID/AST and CLSI susceptibility interpretation, A. baumannii strain 16421; assay type: cell-based, Acinetobacter baumannii
Protocol: as §1, §2, §4, §6

| Compound | antimicrobial susceptibility of the strain to the given antimicrobial (E. faecium strain 18483) | antimicrobial susceptibility of the strain to the given antimicrobial (E. faecium strain 18446) | antimicrobial susceptibility of the strain to the given antimicrobial (S. aureus strain 15509) | antimicrobial susceptibility of the strain to the given antimicrobial (S. aureus strain 16405) | antimicrobial susceptibility of the strain to the given antimicrobial [1] | antimicrobial susceptibility of the strain to the given antimicrobial [2] | antimicrobial susceptibility of the strain to the given antimicrobial [3] | antimicrobial susceptibility of the strain to the given antimicrobial [4] | antimicrobial susceptibility of the strain to the given antimicrobial [5] | antimicrobial susceptibility of the strain to the given antimicrobial [6] |
| --- | --- | --- | --- | --- | --- | --- | --- | --- | --- | --- |
| CC1(C)S[C@@H]2[C@H](NC(=O)[C@H](N)c3ccccc3)C(=O)N2[C@H]1C(=O)O [ampicillin] | resistant | sensitive | – | – | – | – | – | – | – | – |
| CO[C@@]1(NC(=O)Cc2cccs2)C(=O)N2C(C(=O)O)=C(COC(N)=O)CS[C@@H]21 [cefoxitin] | – | – | resistant | sensitive | – | – | – | – | – | – |
| C[C@@H](O)[C@H]1C(=O)N2C(C(=O)O)=C(S[C@@H]3CN[C@H](C(=O)N(C)C)C3)[C@H](C)[C@H]12 [meropenem] | – | – | – | – | resistant | sensitive | resistant | sensitive | resistant | sensitive |
| CN[C@H](CC(C)C)C(=O)N[C@H]1C(=O)N[C@@H](CC(N)=O)C(=O)N[C@H]2C(=O)N[C@H]3C(=O)N[C@H](C(=O)N[C@H](C(=O)O)c4cc(O)cc(O)c4-c4cc3ccc4O)[C@H](O)c3ccc(c(Cl)c3)Oc3cc2cc(c3O[C@@H]2O[C@H](CO)[C@@H](O)[C@H](O)[C@H]2O[C@H]2C[C@](C)(N)[C@H](O)[C@H](C)O2)Oc2ccc(cc2Cl)[C@H]1O [vancomycin] | resistant | sensitive | – | – | – | – | – | – | – | – |
| gentamicin | – | – | – | – | resistant | sensitive | resistant | sensitive | resistant | sensitive |
